Data: ChEMBL document CHEMBL4414672, “Synthesis of certain benzothieno[3,2-d]pyrimidine derivatives as a selective SIRT2 inhibitors” (Eur J Med Chem, 2020)

Experiments:
Type in all cases: functional
[1] = test system: SK-MEL-28; test: Growth inhibition of human SK-MEL-28 cells at 10^-5 M incubated for 48 hrs by sulforhodamine B assay; settings: SK-MEL-28, 48 h, read-out: GI
[2] = test system: COLO 205; test: Growth inhibition of human COLO205 cells at 10^-5 M incubated for 48 hrs by sulforhodamine B assay; settings: COLO 205, 48 h, read-out: GI
[3] = test system: CAKI-1; test: Growth inhibition of human Caki1 cells at 10^-5 M incubated for 48 hrs by sulforhodamine B assay; settings: CAKI-1, 48 h, read-out: GI
[4] = test system: MDA-MB-468; test: Growth inhibition of human MDA-MB-468 cells at 10^-5 M incubated for 48 hrs by sulforhodamine B assay; settings: MDA-MB-468, 48 h, read-out: GI
[5] = test system: EKVX; test: Growth inhibition of human EKVX cells at 10^-5 M incubated for 48 hrs by sulforhodamine B assay; settings: read-out: GI
[6] = test system: MCF7; test: Growth inhibition of human MCF7 cells at 10^-5 M incubated for 48 hrs by sulforhodamine B assay; settings: MCF7, 48 h, read-out: GI
[7] = test system: MDA-MB-435; test: Growth inhibition of human MDA-MB-435 cells at 10^-5 M incubated for 48 hrs by sulforhodamine B assay; settings: MDA-MB-435, 48 h, read-out: GI
[8] = test system: HCT-15; test: Growth inhibition of human HCT15 cells at 10^-5 M incubated for 48 hrs by sulforhodamine B assay; settings: HCT-15, 48 h, read-out: GI
[9] = test system: SF-268; test: Growth inhibition of human SF268 cells at 10^-5 M incubated for 48 hrs by sulforhodamine B assay; settings: SF-268, 48 h, read-out: GI
[10] = test system: HL-60(TB); test: Growth inhibition of human HL-60(TB) cells at 10^-5 M incubated for 48 hrs by sulforhodamine B assay; settings: HL-60, 48 h, read-out: GI
[11] = test system: BT-549; test: Growth inhibition of human BT549 cells at 10^-5 M incubated for 48 hrs by sulforhodamine B assay; settings: BT-549, 48 h, read-out: GI
[12] = test system: DU-145; test: Growth inhibition of human DU145 cells at 10^-5 M incubated for 48 hrs by sulforhodamine B assay; settings: DU-145, 48 h, read-out: GI
[13] = test system: A549; test: Growth inhibition of human A549/ATCC cells at 10^-5 M incubated for 48 hrs by sulforhodamine B assay; settings: A549, 48 h, read-out: GI
[14] = test system: OVCAR-5; test: Growth inhibition of human OVCAR5 cells at 10^-5 M incubated for 48 hrs by sulforhodamine B assay; settings: OVCAR-5, 48 h, read-out: GI
[15] = test system: SK-MEL-5; test: Growth inhibition of human SK-MEL-5 cells at 10^-5 M incubated for 48 hrs by sulforhodamine B assay; settings: SK-MEL-5, 48 h, read-out: GI
[16] = test system: MOLT-4; test: Growth inhibition of human MOLT4 cells at 10^-5 M incubated for 48 hrs by sulforhodamine B assay; settings: MOLT-4, 48 h, read-out: GI
[17] = test system: HCT-116; test: Growth inhibition of human HCT116 cells at 10^-5 M incubated for 48 hrs by sulforhodamine B assay; settings: HCT-116, 48 h, read-out: GI
[18] = test system: SF-295; test: Growth inhibition of human SF295 cells at 10^-5 M incubated for 48 hrs by sulforhodamine B assay; settings: SF-295, 48 h, read-out: GI
[19] = test system: LOX IMVI; test: Growth inhibition of human LOXIMVI cells at 10^-5 M incubated for 48 hrs by sulforhodamine B assay; settings: read-out: GI
[20] = test system: OVCAR-4; test: Growth inhibition of human OVCAR4 cells at 10^-5 M incubated for 48 hrs by sulforhodamine B assay; settings: OVCAR-4, 48 h, read-out: GI
[21] = test system: 786-0; test: Growth inhibition of human 786-0 cells at 10^-5 M incubated for 48 hrs by sulforhodamine B assay; settings: 786-0, 48 h, read-out: GI
[22] = test system: U-251; test: Growth inhibition of human U251 cells at 10^-5 M incubated for 48 hrs by sulforhodamine B assay; settings: U-251, 48 h, read-out: GI
[23] = test system: NCI-H460; test: Growth inhibition of human NCI-H460 cells at 10^-5 M incubated for 48 hrs by sulforhodamine B assay; settings: NCI-H460, 48 h, read-out: GI
[24] = test system: UACC-257; test: Growth inhibition of human UACC257 cells at 10^-5 M incubated for 48 hrs by sulforhodamine B assay; settings: UACC-257, 48 h, read-out: GI
[25] = test system: HT-29; test: Growth inhibition of human HT-29 cells at 10^-5 M incubated for 48 hrs by sulforhodamine B assay; settings: HT-29, 48 h, read-out: GI
[26] = test system: NCI/ADR-RES; test: Growth inhibition of human NCI/ADR-RES cells at 10^-5 M incubated for 48 hrs by sulforhodamine B assay; settings: read-out: GI
[27] = test system: CCRF-CEM; test: Growth inhibition of human CCRF-CEM cells at 10^-5 M incubated for 48 hrs by sulforhodamine B assay; settings: read-out: GI
[28] = test system: ACHN; test: Growth inhibition of human ACHN cells at 10^-5 M incubated for 48 hrs by sulforhodamine B assay; settings: read-out: GI
[29] = test system: NCI-H226; test: Growth inhibition of human NCI-H226 cells at 10^-5 M incubated for 48 hrs by sulforhodamine B assay; settings: NCI-H226, 48 h, read-out: GI
[30] = test system: SNB-75; test: Growth inhibition of human SNB75 cells at 10^-5 M incubated for 48 hrs by sulforhodamine B assay; settings: SNB-75, 48 h, read-out: GI
[31] = test system: Hs-578T; test: Growth inhibition of human Hs 578T cells at 10^-5 M incubated for 48 hrs by sulforhodamine B assay; settings: read-out: GI
[32] = test system: UO-31; test: Growth inhibition of human UO31 cells at 10^-5 M incubated for 48 hrs by sulforhodamine B assay; settings: UO-31, 48 h, read-out: GI
[33] = test system: HOP-62; test: Growth inhibition of human HOP62 cells at 10^-5 M incubated for 48 hrs by sulforhodamine B assay; settings: HOP-62, 48 h, read-out: GI
[34] = test system: IGROV-1; test: Growth inhibition of human IGROV1 cells at 10^-5 M incubated for 48 hrs by sulforhodamine B assay; settings: IGROV-1, 48 h, read-out: GI
[35] = test system: HCC 2998; test: Growth inhibition of human HCC2998 cells at 10^-5 M incubated for 48 hrs by sulforhodamine B assay; settings: HCC 2998, 48 h, read-out: GI
[36] = test system: SW-620; test: Growth inhibition of human SW620 cells at 10^-5 M incubated for 48 hrs by sulforhodamine B assay; settings: SW-620, 48 h, read-out: GI
[37] = test system: NCI-H522; test: Growth inhibition of human NCI-H522 cells at 10^-5 M incubated for 48 hrs by sulforhodamine B assay; settings: NCI-H522, 48 h, read-out: GI
[38] = test system: KM12; test: Growth inhibition of human KM12 cells at 10^-5 M incubated for 48 hrs by sulforhodamine B assay; settings: KM12, 48 h, read-out: GI

Q: For `NNC1=Nc2c(sc3ccc(Cl)cc23)C(c2cccc([N+](=O)[O-])c2)N1` (stereo not drawn), which inhibition of growth at 10 µM [1] is on record?
A: The inhibition of growth at 10 µM was -26.6%.

Q: And the inhibition of growth at 10 µM [2]?
A: Its inhibition of growth at 10 µM is -1.26%.

Q: What about the inhibition of growth at 10 µM [3] of the same compound?
A: Its inhibition of growth at 10 µM is 18.5%.

Q: And the inhibition of growth at 10 µM [4]?
A: Its inhibition of growth at 10 µM is 7.99%.

Q: And the inhibition of growth at 10 µM [5]?
A: Its inhibition of growth at 10 µM is 16.9%.

Q: What about the inhibition of growth at 10 µM [6] of the same compound?
A: The inhibition of growth at 10 µM was 18.1%.

Q: What about the inhibition of growth at 10 µM [7] of the same compound?
A: Its inhibition of growth at 10 µM is -7.56%.

Q: What about the inhibition of growth at 10 µM [8] of the same compound?
A: Its inhibition of growth at 10 µM is -5.02%.

Q: And the inhibition of growth at 10 µM [9]?
A: The inhibition of growth at 10 µM was 1.93%.

Q: What about the inhibition of growth at 10 µM [10] of the same compound?
A: Its inhibition of growth at 10 µM is 2.98%.

Q: And the inhibition of growth at 10 µM [11]?
A: The inhibition of growth at 10 µM was -17.8%.

Q: And the inhibition of growth at 10 µM [12]?
A: Its inhibition of growth at 10 µM is -9.18%.

Q: What about the inhibition of growth at 10 µM [13] of the same compound?
A: The inhibition of growth at 10 µM was -4.45%.

Q: What about the inhibition of growth at 10 µM [14] of the same compound?
A: The inhibition of growth at 10 µM was -5.19%.

Q: And the inhibition of growth at 10 µM [15]?
A: The inhibition of growth at 10 µM was 3.86%.

Q: And the inhibition of growth at 10 µM [16]?
A: Its inhibition of growth at 10 µM is 13%.

Q: What about the inhibition of growth at 10 µM [17] of the same compound?
A: The inhibition of growth at 10 µM was -0.35%.

Q: What about the inhibition of growth at 10 µM [18] of the same compound?
A: Its inhibition of growth at 10 µM is -3.08%.

Q: And the inhibition of growth at 10 µM [19]?
A: The inhibition of growth at 10 µM was 2.22%.

Q: And the inhibition of growth at 10 µM [20]?
A: The inhibition of growth at 10 µM was 1.81%.

Q: What about the inhibition of growth at 10 µM [21] of the same compound?
A: The inhibition of growth at 10 µM was -3.52%.

Q: What about the inhibition of growth at 10 µM [22] of the same compound?
A: Its inhibition of growth at 10 µM is -3.56%.

Q: And the inhibition of growth at 10 µM [23]?
A: The inhibition of growth at 10 µM was 1.16%.

Q: And the inhibition of growth at 10 µM [24]?
A: Its inhibition of growth at 10 µM is -0.19%.

Q: And the inhibition of growth at 10 µM [25]?
A: Its inhibition of growth at 10 µM is -13.5%.

Q: What about the inhibition of growth at 10 µM [26] of the same compound?
A: Its inhibition of growth at 10 µM is -3.64%.

Q: What about the inhibition of growth at 10 µM [27] of the same compound?
A: The inhibition of growth at 10 µM was -19.8%.

Q: And the inhibition of growth at 10 µM [28]?
A: Its inhibition of growth at 10 µM is 6.37%.

Q: What about the inhibition of growth at 10 µM [29] of the same compound?
A: The inhibition of growth at 10 µM was 18.4%.

Q: And the inhibition of growth at 10 µM [30]?
A: The inhibition of growth at 10 µM was 10.7%.

Q: And the inhibition of growth at 10 µM [31]?
A: The inhibition of growth at 10 µM was -2.75%.

Q: What about the inhibition of growth at 10 µM [32] of the same compound?
A: The inhibition of growth at 10 µM was 42.9%.

Q: What about the inhibition of growth at 10 µM [33] of the same compound?
A: Its inhibition of growth at 10 µM is 6.98%.

Q: What about the inhibition of growth at 10 µM [34] of the same compound?
A: The inhibition of growth at 10 µM was 23.8%.

Q: What about the inhibition of growth at 10 µM [35] of the same compound?
A: The inhibition of growth at 10 µM was -1.26%.

Q: What about the inhibition of growth at 10 µM [36] of the same compound?
A: The inhibition of growth at 10 µM was -6.43%.

Q: And the inhibition of growth at 10 µM [37]?
A: The inhibition of growth at 10 µM was 7.13%.

Q: What about the inhibition of growth at 10 µM [38] of the same compound?
A: Its inhibition of growth at 10 µM is 1.7%.
